Test results published in patent US4868303A, “Bis-dioxopiperazine derivatives” (Zenyaku Kogyo Kabushiki Kaisha, priority 1986, dated 1989).

Experiments:
[1] = tested on: P388 lymphocytic leukemia; assay: Growth inhibition of tumor cells of P388 lymphocytic leukemia in vitro; type: cell-based, mouse (CDF1); details: Mus musculus, 48 hours at 37° C., read-out: 50% Inhibitory concentration of cell growth (IC50)
Procedure: (I) Growth Inhibition of Tumor Cells of P388 Lymphocytic Leukemia in Vitro:
Tumor cells were collected aseptically with capillary tube from ascites in CDF1 female mice transplanted intraperitoneally with 1×10^6cells of P388 lymphocytic leukemia 5 days before. Cell suspension was prepared at 5×10^4 cells/0.5 ml in a RPMI1640 medium supplemented with 10% fetal calf serum, kanamycin (0.1 mg/ml) and 2-hydroxyethyldisulfide (0.01 mM). Each test sample was dissolved or suspended in the medium at a concentration of 1×10^-1 -1×10^-5 mM.
A test tube with Molton stopper loosely involving 0.5 ml each of the cell suspension and the sample suspension was kept for 48 hours at 37° C. in an incubator supplied with air containing 5% carbon dioxide. […] The cells harvested therefrom was counted by using of a Coulter Counter and the inhibition of cell growth was calculated by the following formula:
Growth Inhibition (%)=(1-T/C)×100
T: number of cells in the culture containing test sample
C: number of cells in the culture of control

V79 cells = assay: Inhibitory effect on colony formation of V79 cells in vitro; type: cell-based, Chinese hamster; details: Cricetulus griseus, 96 hours with sample, read-out: 90% inhibitory concentration (IC90)
Procedure: (II) Inhibitory effect on Colony Formation of V79 Cells in Vitro:
V79 cells established from Chinese hamster lung fibroblastoma were cultured routinely on plastic dishes (.phi. 60 mm) in RPMI 1640 medium supplemented with 10% fetal calf serum and kanamycin (0.1 mg/ml). Each confluent culture was then trypsinized by the addition of 1 ml of trypsin-EDTA solution (supplied by the firm GIBCO) for 5 minutes at 37° C. in an incubator supplied with humidified air containing 5% CO2.
Homogeneous suspension of V79 cells thus obtained was diluted to 100, 200 and 400 viable cells/ml with the medium, and 1 ml each of them was transferred to other plastic dishes (.phi. 60 mm) containing 1.85 ml of the medium, and diluted to 100, 200 and 400 viable cells/dish.
Each test sample was dissolved in DMSO at the concentration of 20 mM and diluted with the medium to the final concentration of 2×10^-3 -2×10^-10 mM.
Each test dish was kept for 24 hours at 37° C. in an incubator supplied with humidified air containing 5% CO2, and was further cultured for 96 hours after 150 μl of the sample solution was added thereto.
The cells were gently washed once with Mg- and Ca-free phosphate-buffered saline [PBS(-)] and fixed with 1 ml of 3.5% HCHO-PBS(-) solution for 2 hours, then stained with a crystal violet ethanol solution.
The 90% inhibitory concentration (IC90) was calculated by comparing the number of visible colonies on the sample dish with that on the control dish.

[2] = tested on: P388 lymphocytic leukemia; assay: Increase in life span on P388 lymphocytic leukemia tumor-transplanted mouse; type: in vivo, mouse (CDF1); details: P388, ip, 24 h, intraperitoneal, day 1 and 5th day after transplantation, read-out: Rate of increase in life span (ILS); for ILS at 2.5 mg/kg: daily dose 2.5 mg/kg; for ILS at 3 mg/kg: daily dose 3.0 mg/kg
Procedure: (III) Increase in Life Span on P388 Lymphocytic Leukemia Tumor-transplantedMouse:
The treated group to which the test sample was administered consisted of seven mice, while the control group consisted of ten mice. Six weeks old male mice (CDF1, 25±2 g of body weight) were employed as host animals.
Tumor cells (1.0×10^6) of P388 lymphocytic leukemia were transplanted intraperitoneally into each mouse. The treatment was effected one day after the transplantation and on 5th day by administering prescribed dose of each test sample intraperitoneally to the mice.
Antitumor activity of the test sample was evaluated by the rate of increase in life span (ILS) which was calculated with the following formula.
T': median survival time of treated mice
C': median survival time of control mice

Acute toxicity (LD50) = details: mouse, in vivo, ip; intraperitoneal, suspended in saline with 1% HPC, observed 14 days
Procedure: The acute toxicity of the compounds of the present invention was examined by the following test.
The test group to which the compound of the present invention was administered consisted of five mice. Six weeks old male mice (ddY, 30±2 g of body weight) were employed as test animals.

Row | Structure (SMILES) | IC50 [1] | IC90 (V79 cells) | also measured
1 | C[C@H]([C@H](C)N1CC(=O)N(COC(=O)Cc2ccccc2Cl)C(=O)C1)N1CC(=O)NC(=O)C1 (relative stereo) [Sample 10, erythro-2-[4-(2-chlorophenylacetoxymethyl)-3,5-dioxopiperazin-1-yl]-3-(3,5-dioxopiperazin-1-yl)butane] | 7.1 nM | 0.073 nM | ILS at 2.5 mg/kg [2]: 162%
2 | C[C@H]([C@H](C)N1CC(=O)N(COC(=O)COc2ccc(Cl)cc2Cl)C(=O)C1)N1CC(=O)NC(=O)C1 (relative stereo) [Sample 11, erythro-2-[4-(2,4-dichlorophenoxyacetoxymethyl)-3,5-dioxopiperazin-1-yl]-3-(3,5-dioxopiperazin-1-yl)butane] | 77 nM | 0.082 nM | ILS at 2.7 mg/kg ([2]; daily dose 2.7 mg/kg): 132%
3 | Cc1cccc(C(=O)OCN2C(=O)CN([C@@H](C)[C@@H](C)N3CC(=O)NC(=O)C3)CC2=O)c1 (relative stereo) [Sample 14, erythro-2-[4-(3-toluoyloxmethyl)-3,5-dioxopiperazin-1-yl]-3-(3,5-dioxopiperazine-1-yl)butane] | 13 nM | 0.051 nM | ILS at 2.3 mg/kg ([2]; daily dose 2.3 mg/kg): 199%; LD50 at 336 h (Acute toxicity (LD50)): 6.7 to 10 mg/kg
4 | C[C@H]([C@H](C)N1CC(=O)N(COC(=O)c2ccco2)C(=O)C1)N1CC(=O)NC(=O)C1 (relative stereo) [Sample 18, erythro-2-[4-(2-furoyloxymethyl)-3,5-dioxopiperazin-1-yl]-3-(3,5-dioxopiperazin-1-yl)butane] | 42 nM | 0.1 nM | ILS at 2.2 mg/kg ([2]; daily dose 2.2 mg/kg): 185%
5 | C[C@H]([C@H](C)N1CC(=O)N(COC(=O)OCc2ccccc2)C(=O)C1)N1CC(=O)NC(=O)C1 (relative stereo) [Sample 19, erythro-2-(4-benzyloxycarbonyloxymethyl-3,5-dioxopiperazin-1-yl)-3-(3,5-dioxopiperazin-1-yl)butane] | 11 nM | 0.09 nM | ILS at 2.4 mg/kg ([2]; daily dose 2.4 mg/kg): 132%
6 | CC(=O)OCN1C(=O)CN([C@H](C)[C@H](C)N2CC(=O)N(COC(C)=O)C(=O)C2)CC1=O [Sample 1, meso-2,3-bis(4-acetoxymethyl-3,5-dioxopiperazin-1-yl)butane] | 300 nM | 0.089 nM | ILS at 1.5 mg/kg ([2]; daily dose 1.5 mg/kg): 152%
7 | CC(C)COC(=O)OCN1C(=O)CN([C@H](C)[C@H](C)N2CC(=O)N(COC(=O)OCC(C)C)C(=O)C2)CC1=O [Sample 7, meso-2,3-bis(4-isobutoxycarbonyloxymethyl-3,5-dioxopiperazin-1-yl)butane] | 84 nM | 0.0045 nM | ILS at 3 mg/kg [2]: 104%
8 | CC(C(C)N1CC(=O)N(COC(=O)C=Cc2cccc(Cl)c2)C(=O)C1)N1CC(=O)NC(=O)C1 (stereo not drawn) [Sample 12, erythro-2-[4-(3-chlorocinnamoyloxymethyl)-3,5-dioxopiperazin-1-yl]-3-(3,5-dioxopiperazin-1-yl)butane] | 11 nM | 0.098 nM | ILS at 2.5 mg/kg [2]: 90%
9 | C[C@H]([C@H](C)N1CC(=O)N(COC(=O)c2ccccc2)C(=O)C1)N1CC(=O)N(COC(=O)c2ccccc2)C(=O)C1 [Sample 16, meso-2,3-bis(4-benzoyloxymethyl-3,5-dioxopiperazin-1-yl)butane] | 250 nM | 0.098 nM | ILS at 3 mg/kg [2]: 150%
10 | CC(C)COC(=O)OCN1C(=O)CN(CCN2CC(=O)N(COC(=O)OCC(C)C)C(=O)C2)CC1=O [Sample A, 1,2-bis(4-isobutoxycarbonyloxymethyl-3,5-dioxopiperazin-1-yl)ethane, reference compound] | 16000 nM | 110 nM | ILS at 3 mg/kg [2]: 5%; ILS at 250 mg/kg ([2]; daily dose 250 mg/kg (*Adequate dose)): 106%
11 | C[C@H]([C@H](C)N1CC(=O)NC(=O)C1)N1CC(=O)NC(=O)C1 [Sample B, meso-2,3-bis(3,5-dioxopiperazin-1-yl)butane, reference compound] |  | 5.3 nM | 
